From patent US10472356B2, “Bicyclic ketone sulfonamide compounds” (AMGEN INC., priority 2015, dated 2019)

How the values were obtained:
human Nav1.7 [1] = target: T1, human Nav1.7 (Homo sapiens, UniProt Q15858); test: Nav 1.7 In Vitro PatchXpress (PX) Assay; type: cell-based; conditions: HEK 293 cells stably transfected with human Nav1.7; PatchXpress whole cell voltage clamp; partially inactivated state (holding potential yielding 20 to 50% inactivation); read-out: hNav1.7 PX IC50
T1 construct: expressed in transfected cells; host or cells: HEK293
Protocol: Nav 1.7 In Vitro PatchXpress (PX) Assay
HEK 293 cells stably transfected with human Nav1.7 were recorded in whole cell voltage clamp mode with the PatchXpress automated electrophysiology system (Molecular Devices, LLC, Sunnyvale, Calif.). Compound effects were measured on a partially inactivated state of the sodium channel. Cells were clamped to a holding potential yielding 20 to 50% inactivation. To elicit sodium current, channels were activated by pulsing to −10 mV for 20 msec. This voltage protocol was repeated at a rate of 0.1 Hz throughout the experiment. A single concentration of test compound was applied to cells for a duration of 3 minutes. Peak sodium current was measured at the end of the compound addition period to determine percent inhibition. Three to five cells were tested per concentration, and IC50 curves were fitted to percent inhibition as a function of concentration.

human Nav1.7 [2] = target: T1, human Nav1.7; test: Nav 1.7 IWB In Vitro Assay (IonWorks Barracuda); type: cell-based; conditions: HEK293 cells stably transfected with human Nav 1.7; IonWorks Barracuda population patch-clamp; cells clamped to −20 mV for 4 minutes with compound; 26th pulse; read-out: hNav1.7 IWB IC50
Protocol: Nav 1.7 IWB In Vitro Assay
HEK293 cells stably transfected with human Nav 1.7 were recorded in population patch-clamp mode with the IonWorks© Barracuda (IWB) automated electrophysiology system (Molecular Devices, LLC, Sunnyvale, Calif.). From a holding potential of −110 mV, sodium currents were elicited by a train of 26 depolarizations of 150 ms duration to −20 mV at a frequency of 5 Hz. Cells were then clamped to −20 mV for a period of 4 minutes in the presence of a single concentration of test compound. Following this compound incubation period, cells were clamped to −110 mV for three seconds to recover unbound channels and put through the same 26 pulse voltage protocol as above. Peak inward current during the 26th pulse to −20 mV in the presence of compound was divided by the peak inward current evoked by the 26th pulse to −20 mV in the absence of compound to determine percent inhibition. Concentration-response curves of percent inhibition as a function of concentration were generated to calculate IC50 values.

T1 sequence (Q15858 whole entry): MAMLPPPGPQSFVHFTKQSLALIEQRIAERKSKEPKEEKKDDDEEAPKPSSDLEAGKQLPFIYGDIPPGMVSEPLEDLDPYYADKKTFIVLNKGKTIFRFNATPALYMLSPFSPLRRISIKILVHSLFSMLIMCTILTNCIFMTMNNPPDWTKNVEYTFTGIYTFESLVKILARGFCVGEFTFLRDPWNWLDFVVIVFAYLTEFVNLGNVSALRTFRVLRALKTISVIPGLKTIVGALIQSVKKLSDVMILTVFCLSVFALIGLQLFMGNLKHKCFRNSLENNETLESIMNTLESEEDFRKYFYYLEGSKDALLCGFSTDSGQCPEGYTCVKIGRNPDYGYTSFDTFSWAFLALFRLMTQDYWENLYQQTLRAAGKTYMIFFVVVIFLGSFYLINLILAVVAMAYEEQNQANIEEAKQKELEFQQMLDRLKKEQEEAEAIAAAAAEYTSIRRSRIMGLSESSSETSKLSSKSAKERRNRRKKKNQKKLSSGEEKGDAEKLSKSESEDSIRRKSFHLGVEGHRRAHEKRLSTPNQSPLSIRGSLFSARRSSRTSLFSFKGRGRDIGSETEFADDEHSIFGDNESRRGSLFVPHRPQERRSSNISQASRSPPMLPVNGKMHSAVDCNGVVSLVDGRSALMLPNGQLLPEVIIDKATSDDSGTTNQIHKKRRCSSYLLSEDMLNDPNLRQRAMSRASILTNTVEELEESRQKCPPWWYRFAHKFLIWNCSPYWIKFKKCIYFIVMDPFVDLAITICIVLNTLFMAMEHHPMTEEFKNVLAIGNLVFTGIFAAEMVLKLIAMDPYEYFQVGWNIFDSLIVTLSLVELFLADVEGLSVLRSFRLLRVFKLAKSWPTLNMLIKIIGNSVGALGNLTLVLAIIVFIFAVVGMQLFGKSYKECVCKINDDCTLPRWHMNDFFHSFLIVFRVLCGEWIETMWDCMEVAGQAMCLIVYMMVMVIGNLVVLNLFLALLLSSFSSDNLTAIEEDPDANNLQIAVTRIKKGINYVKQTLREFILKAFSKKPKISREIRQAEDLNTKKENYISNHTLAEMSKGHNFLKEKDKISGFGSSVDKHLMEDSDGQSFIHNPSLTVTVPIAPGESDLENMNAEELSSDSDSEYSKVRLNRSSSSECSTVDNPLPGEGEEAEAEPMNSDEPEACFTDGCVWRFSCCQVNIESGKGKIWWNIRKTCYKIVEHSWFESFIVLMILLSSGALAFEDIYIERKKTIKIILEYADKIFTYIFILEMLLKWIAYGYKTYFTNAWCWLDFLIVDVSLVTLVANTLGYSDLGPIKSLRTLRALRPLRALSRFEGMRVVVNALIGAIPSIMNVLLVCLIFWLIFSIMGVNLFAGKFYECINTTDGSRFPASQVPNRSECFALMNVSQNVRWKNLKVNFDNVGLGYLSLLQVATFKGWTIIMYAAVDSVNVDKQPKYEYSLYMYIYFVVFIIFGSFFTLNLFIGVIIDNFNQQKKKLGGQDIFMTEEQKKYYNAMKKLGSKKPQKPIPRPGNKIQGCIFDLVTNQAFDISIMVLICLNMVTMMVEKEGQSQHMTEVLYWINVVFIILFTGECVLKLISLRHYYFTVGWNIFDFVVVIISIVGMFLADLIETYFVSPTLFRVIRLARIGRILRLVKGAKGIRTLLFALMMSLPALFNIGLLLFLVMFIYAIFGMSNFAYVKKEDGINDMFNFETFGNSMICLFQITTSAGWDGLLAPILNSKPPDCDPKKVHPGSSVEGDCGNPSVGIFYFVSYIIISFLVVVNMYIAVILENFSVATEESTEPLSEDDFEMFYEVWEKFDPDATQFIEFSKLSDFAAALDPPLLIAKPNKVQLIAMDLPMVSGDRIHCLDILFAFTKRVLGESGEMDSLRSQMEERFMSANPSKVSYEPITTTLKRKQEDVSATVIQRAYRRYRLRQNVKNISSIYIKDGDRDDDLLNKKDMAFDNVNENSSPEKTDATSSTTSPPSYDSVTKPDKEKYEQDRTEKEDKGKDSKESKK

COc1cc(-c2cc(F)cc(Cl)c2)c(F)cc1-n1c2c(ccc1=O)CN(S(=O)(=O)Nc1ccccn1)CC2 (single isomer, unassigned) [Example 11-M, M-1-(3′-chloro-2,5′-difluoro-5-methoxy-4-biphenylyl)-2-oxo-N-2-pyridinyl-1,5,7,8-tetrahydro-1,6-naphthyridine-6(2H)-sulfonamide]
IC50 (human Nav1.7 [1]): 4.5 µM | IC50 (human Nav1.7 [2]): 849 nM

COc1cc(-c2cc(F)cc(Cl)c2)c(F)cc1-n1c2c(ccc1=O)CN(S(=O)(=O)Nc1cccc(F)n1)CC2 (single isomer, unassigned) [Example 13-M, M-1-(3′-chloro-2,5′-difluoro-5-methoxy-4-biphenylyl)-N-(6-fluoro-2-pyridinyl)-2-oxo-1,5,7,8-tetrahydro-1,6-naphthyridine-6(2H)-sulfonamide]
IC50 (human Nav1.7 [1]): 7.55 µM | IC50 (human Nav1.7 [2]): 983 nM

COc1cc(-c2cc(F)cc(F)c2)c(F)cc1-n1c2c(ccc1=O)CN(S(=O)(=O)Nc1ncon1)CC2 (single isomer, unassigned) [Example 17-M, M-N-1,2,4-oxadiazol-3-yl-2-oxo-1-(2,3′,5′-trifluoro-5-methoxy-4-biphenylyl)-1,5,7,8-tetrahydro-1,6-naphthyridine-6(2H)-sulfonamide]
IC50 (human Nav1.7 [1]): 0.292 µM | IC50 (human Nav1.7 [2]): 34.3 nM

COc1cc(-c2cc(F)cc(Cl)c2)c(F)cc1-n1c2c(ccc1=O)CN(S(=O)(=O)Nc1ccon1)CC2 (single isomer, unassigned) [Example 18-M, M-1-(3′-chloro-2,5′-difluoro-5-methoxy-4-biphenylyl)-N-3-isoxazolyl-2-oxo-1,5,7,8-tetrahydro-1,6-naphthyridine-6(2H)-sulfonamide]
IC50 (human Nav1.7 [1]): 3.56 µM | IC50 (human Nav1.7 [2]): 567 nM

COc1cc(-c2cccc(OC(F)F)c2)c(F)cc1-n1c2c(ccc1=O)CN(S(=O)(=O)Nc1ccon1)CC2 (single isomer, unassigned) [Example 19-M, M-1-(3′-(difluoromethoxy)-2-fluoro-5-methoxy-4-biphenylyl)-N-3-isoxazolyl-2-oxo-1,5,7,8-tetrahydro-1,6-naphthyridine-6(2H)-sulfonamide]
IC50 (human Nav1.7 [1]): 17.1 µM | IC50 (human Nav1.7 [2]): 1940 nM

COc1cc(-c2ccc(F)c(F)c2)c(F)cc1-n1c2c(ccc1=O)CN(S(=O)(=O)Nc1ccon1)CC2 (single isomer, unassigned) [Example 20-M, M-N-3-isoxazolyl-2-oxo-1-(2,3′,4′-trifluoro-5-methoxy-4-biphenylyl)-1,5,7,8-tetrahydro-1,6-naphthyridine-6(2H)-sulfonamide]
IC50 (human Nav1.7 [1]): > 30 µM | IC50 (human Nav1.7 [2]): 2670 nM

COc1cc(-c2ccc(C)c(F)c2)c(F)cc1-n1c2c(ccc1=O)CN(S(=O)(=O)Nc1ccon1)CC2 (single isomer, unassigned) [Example 21-M, M-1-(2,3′-difluoro-5-methoxy-4′-methyl-4-biphenylyl)-N-3-isoxazolyl-2-oxo-1,5,7,8-tetrahydro-1,6-naphthyridine-6(2H)-sulfonamide]
IC50 (human Nav1.7 [1]): 4.94 µM | IC50 (human Nav1.7 [2]): 1550 nM

COc1cc(-c2ccc(F)c(C)c2)c(F)cc1-n1c2c(ccc1=O)CN(S(=O)(=O)Nc1ccon1)CC2 (single isomer, unassigned) [Example 22-M, M-1-(2,4′-difluoro-5-methoxy-3′-methyl-4-biphenylyl)-N-3-isoxazolyl-2-oxo-1,5,7,8-tetrahydro-1,6-naphthyridine-6(2H)-sulfonamide]
IC50 (human Nav1.7 [1]): > 30 µM | IC50 (human Nav1.7 [2]): > 10000 nM

COc1cc(-c2ccc(F)c(F)c2)c(F)cc1-n1c2c(ccc1=O)CN(S(=O)(=O)Nc1ncccn1)CC2 (single isomer, unassigned) [Example 28-M, M-2-oxo-N-2-pyrimidinyl-1-(2,3′,4′-trifluoro-5-methoxy-4-biphenylyl)-1,5,7,8-tetrahydro-1,6-naphthyridine-6(2H)-sulfonamide]
IC50 (human Nav1.7 [1]): > 30 µM | IC50 (human Nav1.7 [2]): > 10000 nM

COc1cc(-c2ccc(F)c(F)c2)c(F)cc1-n1c2c(ccc1=O)CN(S(=O)(=O)Nc1ncccn1)CC2 (single isomer, unassigned) [Example 28-P, P-2-oxo-N-2-pyrimidinyl-1-(2,3′,4′-trifluoro-5-methoxy-4-biphenylyl)-1,5,7,8-tetrahydro-1,6-naphthyridine-6(2H)-sulfonamide]
IC50 (human Nav1.7 [1]): 0.499 µM | IC50 (human Nav1.7 [2]): 80.5 nM

COc1cc(-c2ccc(F)c(C)c2)c(F)cc1-n1c2c(ccc1=O)CN(S(=O)(=O)Nc1ncccn1)CC2 (single isomer, unassigned) [Example 29-M, M-1-(2,4′-difluoro-5-methoxy-3′-methyl-4-biphenylyl)-2-oxo-N-2-pyrimidinyl-1,5,7,8-tetrahydro-1,6-naphthyridine-6(2H)-sulfonamide]
IC50 (human Nav1.7 [1]): > 30 µM | IC50 (human Nav1.7 [2]): > 2500 nM

COc1cc(-c2ccc(F)c(C)c2)c(F)cc1-n1c2c(ccc1=O)CN(S(=O)(=O)Nc1ncccn1)CC2 (single isomer, unassigned) [Example 29-P, P-1-(2,4′-difluoro-5-methoxy-3′-methyl-4-biphenylyl)-2-oxo-N-2-pyrimidinyl-1,5,7,8-tetrahydro-1,6-naphthyridine-6(2H)-sulfonamide]
IC50 (human Nav1.7 [1]): 0.568 µM | IC50 (human Nav1.7 [2]): 55.5 nM

COc1cc(-c2ccc(Cl)c(C)c2)c(F)cc1-n1c2c(ccc1=O)CN(S(=O)(=O)Nc1ncccn1)CC2 (single isomer, unassigned) [Example 30-M, M-1-(4′-chloro-2-fluoro-5-methoxy-3′-methyl-4-biphenylyl)-2-oxo-N-2-pyrimidinyl-1,5,7,8-tetrahydro-1,6-naphthyridine-6(2H)-sulfonamide]
IC50 (human Nav1.7 [1]): 24.9 µM | IC50 (human Nav1.7 [2]): 3910 nM

COc1cc(-c2cc(F)cc(Cl)c2)c(F)cc1-n1c2c(ccc1=O)CN(S(=O)(=O)Nc1ncccn1)CC2 (single isomer, unassigned) [Example 31-M, M-1-(3′-chloro-2,5′-difluoro-5-methoxy-4-biphenylyl)-2-oxo-N-2-pyrimidinyl-1,5,7,8-tetrahydro-1,6-naphthyridine-6(2H)-sulfonamide]
IC50 (human Nav1.7 [1]): 5.02 µM | IC50 (human Nav1.7 [2]): 2730 nM

COc1cc(-c2cc(F)cc(Cl)c2)c(F)cc1-n1c2c(ccc1=O)CN(S(=O)(=O)Nc1ncccn1)CC2 (single isomer, unassigned) [Example 31-P, P-1-(3′-chloro-2,5′-difluoro-5-methoxy-4-biphenylyl)-2-oxo-N-2-pyrimidinyl-1,5,7,8-tetrahydro-1,6-naphthyridine-6(2H)-sulfonamide]
IC50 (human Nav1.7 [1]): 0.205 µM | IC50 (human Nav1.7 [2]): 36.9 nM

COc1cc(-c2ccc(F)c(F)c2)c(F)cc1-n1c2c(ccc1=O)CN(S(=O)(=O)Nc1cccnn1)CC2 (single isomer, unassigned) [Example 32-M, M-2-oxo-N-3-pyridazinyl-1-(2,3′,4′-trifluoro-5-methoxy-4-biphenylyl)-1,5,7,8-tetrahydro-1,6-naphthyridine-6(2H)-sulfonamide]
IC50 (human Nav1.7 [1]): 20.6 µM | IC50 (human Nav1.7 [2]): 1000 nM

COc1cc(-c2cc(F)cc(Cl)c2)c(F)cc1-n1c2c(ccc1=O)CN(S(=O)(=O)Nc1cccnn1)CC2 (single isomer, unassigned) [Example 38-M, M-1-(3′-chloro-2,5′-difluoro-5-methoxy-4-biphenylyl)-2-oxo-N-3-pyridazinyl-1,5,7,8-tetrahydro-1,6-naphthyridine-6(2H)-sulfonamide]
IC50 (human Nav1.7 [1]): 3.12 µM | IC50 (human Nav1.7 [2]): 662 nM

COc1cc(-c2cccc(C(F)(F)F)c2)c(Cl)cc1-n1c2c(ccc1=O)CN(S(=O)(=O)Nc1cccnn1)CC2 (single isomer, unassigned) [Example 91-M, M-1-(2-chloro-5-methoxy-3′-(trifluoromethyl)-[1,1′-biphenyl]-4-yl)-2-oxo-N-(pyridazin-3-yl)-1,2,7,8-tetrahydro-1,6-naphthyridine-6(5H)-sulfonamide]
IC50 (human Nav1.7 [1]): 0.681 µM | IC50 (human Nav1.7 [2]): 154 nM

COc1cc(-c2ccc(F)c(C)c2)c(Cl)cc1-n1c2c(ccc1=O)CN(S(=O)(=O)Nc1cccnn1)CC2 (single isomer, unassigned) [Example 92-M, M-1-(2-chloro-4′-fluoro-5-methoxy-3′-methyl-[1,1′-biphenyl]-4-yl)-2-oxo-N-(pyridazin-3-yl)-1,2,7,8-tetrahydro-1,6-naphthyridine-6(5H)-sulfonamide]
IC50 (human Nav1.7 [1]): 3.01 µM | IC50 (human Nav1.7 [2]): 282 nM

COc1cc(-c2ccc(F)c(C)c2)c(Cl)cc1-n1c2c(ccc1=O)CN(S(=O)(=O)Nc1cccnn1)CC2 (single isomer, unassigned) [Example 92-P, P-1-(2-chloro-4′-fluoro-5-methoxy-3′-methyl-[1,1′-biphenyl]-4-yl)-2-oxo-N-(pyridazin-3-yl)-1,2,7,8-tetrahydro-1,6-naphthyridine-6(5H)-sulfonamide]
IC50 (human Nav1.7 [1]): 0.0414 µM | IC50 (human Nav1.7 [2]): 5.9 nM
